# Laboratory results published in ChEMBL document CHEMBL1133887, “Anti-influenza virus activities of 2-alkoxyimino-n-(2-isoxazolin-3-ylmethyl)acetamides” (Bioorg Med Chem Lett, 2001).
# Columns and labels:
# [1] = Antiviral activity against A/WSN/33 strain of influenza virus (H1N1 subtype) in MDBK cells using cell protection assay; expressed as 10-100 ppm; type: functional, cell-based; settings: Bos taurus
# [2] = The compound was evaluated for cytotoxic activity in MDBK cells; expressed as >100 ppm; type: functional; settings: Bos taurus
# cells = type: functional, cell-based; settings: Bos taurus, MDBK
# [3] = Evaluated for cytotoxic activity in MDBK cells; type: functional; settings: Bos taurus
# [4] = Antiviral activity against A/WSN/33 strain of influenza virus (H1N1 subtype) in MDBK cells using cell protection assay; type: functional, cell-based; settings: Bos taurus
# [5] = Antiviral activity against A/WSN/33 strain of influenza virus (H1N1 subtype) in MDBK cells using cell protection assay; expressed as 1-10 ppm; type: functional, cell-based; settings: Bos taurus
# [6] = Antiviral activity against A/WSN/33 strain of influenza virus (H1N1 subtype) in MDBK cells using cell protection assay; expressed as 100 ppm; type: functional, cell-based; settings: Bos taurus
# [7] = Antiviral activity against A/WSN/33 strain of influenza virus (H1N1 subtype) in MDBK cells using cell protection assay; expressed as >10-100 ppm; type: functional, cell-based; settings: Bos taurus
SMILES,EC50 [1],CC50 [3],other results
CO/N=C(\C#N)C(=O)NCC1=NOC(C)C1 (stereo not given),100 µg/mL,,CC50 [2]: > 100 µg/mL
CCNC(=O)NC(=O)/C(C#N)=N/OC [CYMOXANIL],,> 100 µg/mL,EC50 (cells): > 100 µg/mL
C=CCO/N=C(\C#N)C(=O)NCC1=NOC(c2ccccc2)C1 (stereo not given),100 µg/mL,100 µg/mL,
C=CCO/N=C(\C)C(=O)NCC1=NOC(C(C)(C)C)C1 (stereo not given),,> 100 µg/mL,EC50 [4]: 6 µg/mL
CO/N=C(\C#N)C(=O)NCc1cccnc1,,> 100 µg/mL,EC50 (cells): > 100 µg/mL
CO/N=C(\C#N)C(=O)NCC1=NOC(C(C)(C)C)C1 (stereo not given),,> 100 µg/mL,EC50 [5]: 10 µg/mL
CO/N=C(\C#N)C(=O)NC(=O)OC(C)(C)C,,> 100 µg/mL,EC50 (cells): > 100 µg/mL
C=CCO/N=C/C(=O)NCC1=NOC(C(C)(C)C)C1 (stereo not given),,> 100 µg/mL,EC50 [6]: 100 µg/mL
CCO/N=C(\C#N)C(=O)NCC1=NOC(C(C)(C)C)C1 (stereo not given),,> 100 µg/mL,EC50 [5]: 10 µg/mL
CO/N=C(/C#N)C(=O)NCC1=NOC(C)(C)C1,,> 100 µg/mL,EC50 (cells): > 100 µg/mL
CC(C)O/N=C(\C#N)C(=O)NCC1=NOC(C(C)(C)C)C1 (stereo not given),,> 100 µg/mL,EC50 [5]: 10 µg/mL
CO/N=C(\C#N)C(=O)NC1=NOC(C(C)(C)C)C1 (stereo not given),,> 100 µg/mL,EC50 (cells): > 100 µg/mL
CO/N=C(\C#N)C(=O)NCc1cccs1,,> 100 µg/mL,EC50 (cells): > 100 µg/mL
NC12CC3CC(CC(C3)C1)C2 [AMANTADINE],100 µg/mL,> 100 µg/mL,
C=CCO/N=C(\CC)C(=O)NCC1=NOC(C(C)(C)C)C1 (stereo not given),,> 100 µg/mL,EC50 [6]: 100 µg/mL
CO/N=C(/C#N)C(=O)NCC1=NOC(C(C)(C)C)C1 (stereo not given),100 µg/mL,> 100 µg/mL,
C=CCO/N=C(\C#N)C(=O)NCC1=NOC(c2ccccc2)(c2ccccc2)C1,,100 µg/mL,EC50 [7]: > 100 µg/mL
C=CCO/N=C(/C(=O)NCC1=NOC(C(C)(C)C)C1)c1ccccc1 (stereo not given),,> 100 µg/mL,EC50 [6]: 100 µg/mL
CO/N=C(\C#N)C(=O)NCC1CC(C(C)(C)C)=NO1 (stereo not given),100 µg/mL,> 100 µg/mL,
CC(C)(C)C1CC(CNC(=O)/C(C#N)=N/OCc2ccccc2)=NO1 (stereo not given),100 µg/mL,100 µg/mL,
CC(C)(C)C1CC(CNC(=O)/C(C#N)=N/OCC#N)=NO1 (stereo not given),100 µg/mL,> 100 µg/mL,
C=CCO/N=C(\C#N)C(=O)NCC1=NOC(C(C)(C)C)C1 (stereo not given),,> 100 µg/mL,EC50 [4]: 3 µg/mL
C=CCO/N=C(\C#N)C(=O)NCc1cc(C(C)(C)C)on1,100 µg/mL,100 µg/mL,
CO/N=C(\C#N)C(=O)NCC1=NOC(C)(C)C1,100 µg/mL,> 100 µg/mL,
CC(C)(C)C1CC(CNC(=O)/C(C#N)=N/OCc2cccnc2)=NO1 (stereo not given),,> 100 µg/mL,EC50 (cells): > 100 µg/mL
